The values below come from patent publication US20100184094A1, “USE OF MDCK CELLS IN THE EVALUATION OF CHOLESTEROL MODULATORS” (priority 2007, published 2010).

In assay [1] the target is T1, human NPC1L1 (Homo sapiens, UniProt Q9UHC9).
T1 construct: expressed in transfected cells
T1 sequence (Q9UHC9 22-1359): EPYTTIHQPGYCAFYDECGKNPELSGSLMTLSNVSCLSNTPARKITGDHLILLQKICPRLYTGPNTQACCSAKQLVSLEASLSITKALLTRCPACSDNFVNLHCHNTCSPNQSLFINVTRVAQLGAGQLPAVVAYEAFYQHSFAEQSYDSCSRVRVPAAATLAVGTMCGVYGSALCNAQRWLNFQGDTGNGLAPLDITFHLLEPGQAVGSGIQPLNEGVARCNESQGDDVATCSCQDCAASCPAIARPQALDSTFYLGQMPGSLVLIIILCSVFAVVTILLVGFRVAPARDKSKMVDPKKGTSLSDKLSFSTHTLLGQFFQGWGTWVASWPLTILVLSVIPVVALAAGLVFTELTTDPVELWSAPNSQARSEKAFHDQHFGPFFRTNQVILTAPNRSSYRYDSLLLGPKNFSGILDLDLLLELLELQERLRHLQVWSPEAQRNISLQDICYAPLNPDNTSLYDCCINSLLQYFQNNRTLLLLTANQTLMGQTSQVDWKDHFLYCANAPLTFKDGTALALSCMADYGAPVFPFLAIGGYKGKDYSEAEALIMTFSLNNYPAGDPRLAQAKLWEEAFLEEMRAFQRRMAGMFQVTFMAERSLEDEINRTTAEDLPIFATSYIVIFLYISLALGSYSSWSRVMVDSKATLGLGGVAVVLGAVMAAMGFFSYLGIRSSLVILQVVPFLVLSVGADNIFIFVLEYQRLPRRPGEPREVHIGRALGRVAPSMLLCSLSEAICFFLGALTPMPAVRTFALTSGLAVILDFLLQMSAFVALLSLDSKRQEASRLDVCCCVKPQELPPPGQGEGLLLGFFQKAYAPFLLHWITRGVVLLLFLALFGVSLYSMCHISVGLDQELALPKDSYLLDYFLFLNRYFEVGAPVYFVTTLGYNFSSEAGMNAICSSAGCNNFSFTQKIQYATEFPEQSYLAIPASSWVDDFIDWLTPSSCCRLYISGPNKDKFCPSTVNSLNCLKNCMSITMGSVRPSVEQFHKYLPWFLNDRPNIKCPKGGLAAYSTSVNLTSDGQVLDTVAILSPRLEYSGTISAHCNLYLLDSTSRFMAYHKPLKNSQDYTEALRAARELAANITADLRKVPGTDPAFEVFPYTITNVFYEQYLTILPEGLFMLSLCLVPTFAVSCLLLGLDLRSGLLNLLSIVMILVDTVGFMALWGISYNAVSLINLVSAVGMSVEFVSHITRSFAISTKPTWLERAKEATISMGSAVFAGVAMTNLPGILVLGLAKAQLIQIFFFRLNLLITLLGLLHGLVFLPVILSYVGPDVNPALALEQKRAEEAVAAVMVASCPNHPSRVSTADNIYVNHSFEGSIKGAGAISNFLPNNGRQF
The experiment in a line: [3H]AS binding to hNPC1L1/MDCKII-Flp cells. As to conditions: FIG. 7D, read-out: Ki inhibition of [3H]AS binding. The protocol:
(§1) rNPC1L1/HEK293 and TsA201 cells were seeded at a density of 10,000 cells per well in 96-well poly-D-lysine coated plates and cells were allowed to attach for approximately 18 h at 37° C. TsA201 cells were subsequently transfected with dog NPC1L1/pcDNA5/FRT according to the manufacturer's instructions (Roche) and incubated for 3 days at 37° C. MDCKII-derived, LLC-PKI, HepG2, or CaCo-2 cells were seeded at a density of 25,000 cells per well in 96-well tissue culture treated plates, and cells were allowed to attach and differentiate for approximately 72 h at 37° C., except for CaCo-2 cells where differentiation took approximately 14 days at 37° C. […] Duplicate samples were averaged for each experimental point. […] Dissociation kinetics were determined by addition of 100 μM EZE-gluc, and incubating for different periods of time. Nonspecific binding was defined in the presence of 100 μM EZE-gluc. At the end of the incubation period, cells were washed twice with 200 μl of pre-warmed DMEM to separate bound from free ligand, 1% SDS was added to the wells followed by 5 ml of Scintillant, and radioactivity associated with cells was determined using a β-counter. […] Thereafter, plates were placed on ice and cells were washed twice with ice-cold PBS, followed by ice-cold acid wash with DMEM, pH 3.5, for 1, 5 or 15 minutes. […] For Transwell experiments, MDCKII cells were seeded at 200,000 cells/well in a 24-well plate and incubated for 3 days at 37° C. […] Thereafter, both apical and basolateral compartments were washed three times with PBS, and the Transwell filter was cut out and its associated radioactivity determined using afi-counter. Data from saturation, competition and ligand dissociation experiments were analyzed as described in the literature; see, Priest, et al., 2004 Biochemistry 43:9866-9876; Knaus et al., 1995 Biochemistry 34:13627-13634. The association rate, k1, was determined by employing the pseudo-first-order rate equation k1=kobs([LR]e/[L][LR]max)) where [LR]max is the concentration of the complex at equilibrium, [L] is the concentration of ligand, [LR]max is the total receptor concentration, kobs is the slope of the pseudo-first order plot, ln([LR]e/([LR]e−[LR]t)) versus time, and [LR]t is the receptor-ligand complex at one given time point t.
To validate MDCKII cells as an appropriate surrogate system for monitoring NPC1L1-dependent processes, we evaluated their ability to perform EZE-sensitive cholesterol flux using a similar protocol to that recently reported. This assay makes use of the ability of βmCD to deplete membrane-bound cholesterol. […]
(§2) To further characterize the [^3H] cholesterol influx process into MDCK cells, the potency of EZE-like compound PS for inhibiting [^3H] cholesterol uptake was determined.

The target of assay [2] is T1, human NPC1L1. As to the kind of experiment: [3H]cholesterol flux into hNPC1L1/MDCKII-Flp cells. Type of assay: cell-based. The note with it: hNPC1L1/MDCKII-Flp, FIG. 7D; read-out: IC50 block of [3H]cholesterol flux. As to the method:
Flux assays were performed essentially as described by Yu et al., 2006 J Biol. Chem. 281:6616-6624. Briefly, cell growth medium was completely aspirated and replaced with 200 μl of 5% LPDS containing the appropriate concentration of compound and incubated at 37° C./3 h in a 5% CO2 incubator. Media was subsequently aspirated from cells and cells were incubated in 200 μl of 0-5.5% βmCD dissolved and filtered through a […] filter at 37° C./45 minutes in a 5% CO2 incubator. Media was dumped from cells that were then washed twice with 125 μl of 5% LPDS before media was aspirated and [3H]cholesterol complexed to BSA in 5% LPDS was added; see Yu et al., 2006 J. Biol. Chem. 281:6616-6624. After 45 minute incubation, cells were washed twice with DMEM, thoroughly aspirated and then 1% SDS was added prior to extraction for scintillation counting.
To validate MDCKII cells as an appropriate surrogate system for monitoring NPC1L1-dependent processes, we evaluated their ability to perform EZE-sensitive cholesterol flux using a similar protocol to that recently reported. This assay makes use of the ability of βmCD to deplete membrane-bound cholesterol. Subsequent exposure of cells to [^3H] cholesterol provides a time-dependent flux of this substrate into the cells. […] In an attempt to improve the assay window, a stable MDCKII-Flp cell line over-expressing human NPC1L1, hNPC1L1/MDCKII-Flp, was generated.
as §2

In a further assay the target is T2, rat NPC1L1 (Rattus norvegicus, UniProt Q6T3U3).
T2 construct: expressed in transfected cells
The experiment in a line: [3H]AS binding to rNPC1L1/HEK293 cells (saturation, kinetics, competition, acid wash). As to the method:
rNPC1L1/HEK293 and TsA201 cells were seeded at a density of 10,000 cells per well in 96-well poly-D-lysine coated plates and cells were allowed to attach for approximately 18 h at 37° C. TsA201 cells were subsequently transfected with dog NPC1L1/pcDNA5/FRT according to the manufacturer's instructions (Roche) and incubated for 3 days at 37° C. MDCKII-derived, LLC-PKI, HepG2, or CaCo-2 cells were seeded at a density of 25,000 cells per well in 96-well tissue culture treated plates, and cells were allowed to attach and differentiate for approximately 72 h at 37° C., except for CaCo-2 cells where differentiation took approximately 14 days at 37° C. […] Duplicate samples were averaged for each experimental point. […] To determine the kinetics of ligand association, cells were incubated with [^3H]AS for different periods of time. Dissociation kinetics were determined by addition of 100 μM EZE-gluc, and incubating for different periods of time. Nonspecific binding was defined in the presence of 100 μM EZE-gluc. At the end of the incubation period, cells were washed twice with 200 μl of pre-warmed DMEM to separate bound from free ligand, 1% SDS was added to the wells followed by 5 ml of Scintillant, and radioactivity associated with cells was determined using a β-counter. […] Thereafter, plates were placed on ice and cells were washed twice with ice-cold PBS, followed by ice-cold acid wash with DMEM, pH 3.5, for 1, 5 or 15 minutes. […] For Transwell experiments, MDCKII cells were seeded at 200,000 cells/well in a 24-well plate and incubated for 3 days at 37° C. […] Thereafter, both apical and basolateral compartments were washed three times with PBS, and the Transwell filter was cut out and its associated radioactivity determined using afi-counter. Data from saturation, competition and ligand dissociation experiments were analyzed as described in the literature; see, Priest, et al., 2004 Biochemistry 43:9866-9876; Knaus et al., 1995 Biochemistry 34:13627-13634. The association rate, k1, was determined by employing the pseudo-first-order rate equation k1=kobs([LR]e/[L][LR]max)) where [LR]max is the concentration of the complex at equilibrium, [L] is the concentration of ligand, [LR]max is the total receptor concentration, kobs is the slope of the pseudo-first order plot, ln([LR]e/([LR]e−[LR]t)) versus time, and [LR]t is the receptor-ligand complex at one given time point t.
Incubation of rNPC1L1/HEK293 cells with 5 nM [311]AS results in a time-dependent association of ligand with cells that reaches equilibrium in ˜3 h (FIG. 1B). The nonspecific binding component is time-independent and has been subtracted from the experimental data. A semilogarithmic transformation of the data yielded a linear dependence (FIG. 1B, inset), as expected for a pseudo-first order reaction, and the slope of this line gives kobs of 0.0208 min^−1. The association rate constant, k1, calculated as described under Example 3, is 2.4×10^6 M^−1 min^−1.
Ki values, determined as described above, are presented in Table 1 below and display the expected rank order of potency for interaction of these ligands with rat NPC1L1; Garcia-Calvo et al., 2005 Proc. Natl. Acad. Sci. USA 102:8132-8137.
Such an approach has previously been previously used to characterize cell surface, non-covalent interactions; Hopkins & Trowbridge, 1983 J. Cell Biol. 97:508-521; Chen et al., 1998 Proc. Natl. Acad. USA 95:6373-6378.

Assay [3] has as its target dog NPC1L1 endogenously expressed in MDCKII cells (Canis lupus familiaris, UniProt A0A8I3RZG1). As to the kind of experiment: [3H]AS binding to MDCKII cells (saturation, kinetics, competition, acid wash). As to the method:
as §1

The next assay deals with dog NPC1L1 (Canis lupus familiaris, UniProt A0A8I3RZG1). The experiment in a line: [3H]AS binding to dog NPC1L1 transiently expressed in TsA201 cells. As to the method: as §1
To further validate this statement, cloned dog NPC1L1 was transiently expressed in TsA201 cells and binding of [^3]AS to these cells was then characterized (FIG. 5 and Table 1).

Assay [4] concerns surface expression of NPC1L1 in MDCKII cells. As to the kind of experiment: Effect of lovastatin on surface expression of NPC1L1 ([3H]AS binding) in MDCKII cells. As to conditions: 4 μM lovastatin; for effect on [3H]AS binding: cells grown in 5% LPDS, 72 h. Type of assay: cell-based, dog. The protocol: To determine whether the expression pattern of NPC1L1 in MDCKII cells is sensitive to changes in the endogenous concentration of cholesterol, MDCKII cells were seeded and grown in either 10% FBS or 5% lipoprotein deficient serum (5% LPDS) in the absence or presence of the HMG CoA reductase inhibitor, lovastatin.

Some results are limits rather than exact numbers.

Sequence of dog NPC1L1 endogenously expressed in MDCKII cells (A0A8I3RZG1 entry or part of it): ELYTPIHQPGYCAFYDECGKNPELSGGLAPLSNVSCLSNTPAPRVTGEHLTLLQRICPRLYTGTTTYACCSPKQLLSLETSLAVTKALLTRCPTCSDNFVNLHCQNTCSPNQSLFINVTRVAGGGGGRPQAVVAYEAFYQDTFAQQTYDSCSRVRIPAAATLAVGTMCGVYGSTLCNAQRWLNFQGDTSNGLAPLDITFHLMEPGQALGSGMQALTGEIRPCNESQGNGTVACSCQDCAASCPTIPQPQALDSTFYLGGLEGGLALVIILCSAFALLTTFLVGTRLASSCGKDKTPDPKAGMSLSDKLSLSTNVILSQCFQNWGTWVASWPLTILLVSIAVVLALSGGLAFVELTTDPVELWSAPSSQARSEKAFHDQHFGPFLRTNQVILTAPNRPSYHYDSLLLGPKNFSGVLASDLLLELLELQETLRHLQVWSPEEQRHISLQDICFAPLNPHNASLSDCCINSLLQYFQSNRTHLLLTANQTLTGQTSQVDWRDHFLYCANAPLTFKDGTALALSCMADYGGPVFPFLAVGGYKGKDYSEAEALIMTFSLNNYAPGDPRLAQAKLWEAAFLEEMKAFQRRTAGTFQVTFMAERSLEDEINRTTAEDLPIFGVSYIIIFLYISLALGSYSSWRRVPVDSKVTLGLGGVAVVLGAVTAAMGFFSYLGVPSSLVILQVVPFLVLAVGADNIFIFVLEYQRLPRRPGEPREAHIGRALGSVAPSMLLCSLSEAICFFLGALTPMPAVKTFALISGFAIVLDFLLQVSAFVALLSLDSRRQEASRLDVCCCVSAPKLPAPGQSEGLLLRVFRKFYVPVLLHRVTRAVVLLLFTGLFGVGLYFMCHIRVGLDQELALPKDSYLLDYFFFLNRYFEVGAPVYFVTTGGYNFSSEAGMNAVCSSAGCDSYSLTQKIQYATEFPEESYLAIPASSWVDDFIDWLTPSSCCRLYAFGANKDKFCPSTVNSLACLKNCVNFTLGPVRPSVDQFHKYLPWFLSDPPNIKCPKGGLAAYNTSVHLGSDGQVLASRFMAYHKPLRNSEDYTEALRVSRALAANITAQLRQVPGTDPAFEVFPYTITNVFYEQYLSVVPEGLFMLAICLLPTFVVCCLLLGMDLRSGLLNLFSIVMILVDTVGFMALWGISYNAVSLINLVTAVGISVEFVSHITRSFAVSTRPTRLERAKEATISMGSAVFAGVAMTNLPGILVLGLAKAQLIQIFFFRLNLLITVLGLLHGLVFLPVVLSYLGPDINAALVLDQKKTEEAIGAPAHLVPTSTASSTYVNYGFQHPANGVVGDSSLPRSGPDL
Sequence of dog NPC1L1 (A0A8I3RZG1 entry or part of it): as above

By Ki is commonly meant a measure of affinity in units of concentration, obtained from inhibition or displacement. As a reminder, the IC50 is the point on the concentration scale where inhibition reaches its midpoint. For `O=C(O)C1OC(Oc2ccc(C3C(CCC(O)c4ccc(F)cc4)C(=O)N3c3ccc(F)cc3)cc2)C(O)C(O)C1O` (single isomer, unassigned; ent-1) [ent-1], the inhibition constant Ki on human NPC1L1 [1] was above 100000 nM. For the same molecule, the IC50 on human NPC1L1 [2] is above 100000 nM.
Turning to `CS(=O)(=O)NCCCc1ccc(N2C(=O)[C@H](CC[C@H](O)c3ccc(F)cc3)[C@H]2c2ccc(O[C@@H]3O[C@H](C(=O)O)[C@@H](O)[C@H](O)[C@H]3O)cc2)cc1` [AS, 4-[(2S,3R)-3-[(3S)-3-(4-fluorophenyl)-3-hydroxypropyl]-1-(4-{3-[(methylsulfonyl)amino]propyl}phenyl)-4-oxoazetidin-2-yl]phenyl β-D-gluteopyranosiduronic acid], the half-inhibitory concentration (IC50) was 5.25 nM on rat NPC1L1 (5.36 nM [3H]AS, 4 h, 37° C., read-out: IC50 inhibition of [3H]AS binding); 2.86 nM in assay [3] (5.49 nM [3H]AS, 4 h, 37° C., read-out: IC50 inhibition of [3H]AS binding); 3.79 nM on dog NPC1L1 (4.65 nM [3H]AS, 4 h, 37° C., read-out: IC50 inhibition of [3H]AS binding). Further, the Ki on rat NPC1L1 (rNPC1L1/HEK293 cells) was 2.35 ± 0.49 nM; in assay [3] (MDCKII cells), 0.34 ± 0.04 nM; on dog NPC1L1 (dog NPC1L1/TsA201 cells, read-out: Ki (competition with [3H]AS)), 1 ± 0.11 nM. Further, the Kd on rat NPC1L1 (rNPC1L1/HEK293 cells, increasing [3H]AS, 4 h, 37° C., read-out: Kd (equilibrium dissociation constant, saturation binding)) is 4.62 ± 0.69 nM; in assay [3] (MDCKII cells, increasing [3H]AS, 4 h, 37° C.) it was 0.59 ± 0.07 nM; on dog NPC1L1 (dog NPC1L1/TsA201 cells, read-out: Kd (saturation binding)), 2.15 ± 0.39 nM.
`CC[C@H](C)C(=O)O[C@H]1C[C@@H](C)C=C2C=C[C@H](C)[C@H](CC[C@@H]3C[C@@H](O)CC(=O)O3)[C@H]21` [lovastatin]: the figures for the “effect on [3H]AS binding” value in assay [4] and in assay [4] (listed as Lovastatin) were “doubles” and “increase”, respectively. Also, the “effect on surface expression of NPC1L1” value in assay [4] (cells grown in 10% FBS) is given as “does not cause any significant effect”.
